Here are results for 5 compounds from article PMC4915350 (Journal of Medicinal Chemistry, 2016).

The target in assay [1] is D3R. As to conditions: read-out: Ki at D3R, previously reported; using [3H]spiperone; cited from earlier work.
The subject of assay [2] is D3R. As to conditions: concentrations up to 1 μM, data not shown; ref 22 (McCall et al. 2005); cited from earlier work.
The target in the next assay is hD2R (Homo sapiens, UniProt P14416). The assay can be described thus: biochemical. In kind it is binding.
A further assay addresses hD3R (Homo sapiens, UniProt P35462). The assay can be described thus: biochemical. In kind it is binding.

hD2R, sequence (P14416 whole entry): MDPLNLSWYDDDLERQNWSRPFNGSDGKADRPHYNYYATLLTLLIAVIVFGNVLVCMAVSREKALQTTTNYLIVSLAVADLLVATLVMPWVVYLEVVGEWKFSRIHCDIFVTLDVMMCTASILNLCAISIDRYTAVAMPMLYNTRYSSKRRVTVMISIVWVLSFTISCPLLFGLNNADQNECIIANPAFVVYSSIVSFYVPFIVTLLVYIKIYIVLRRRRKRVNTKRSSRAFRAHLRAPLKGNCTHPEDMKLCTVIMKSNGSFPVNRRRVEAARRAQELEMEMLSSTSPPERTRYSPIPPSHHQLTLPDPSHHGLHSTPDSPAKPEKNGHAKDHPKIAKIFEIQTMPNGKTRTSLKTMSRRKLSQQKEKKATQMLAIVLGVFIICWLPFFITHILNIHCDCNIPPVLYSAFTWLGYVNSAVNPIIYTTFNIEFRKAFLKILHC
hD3R, sequence (P35462 whole entry): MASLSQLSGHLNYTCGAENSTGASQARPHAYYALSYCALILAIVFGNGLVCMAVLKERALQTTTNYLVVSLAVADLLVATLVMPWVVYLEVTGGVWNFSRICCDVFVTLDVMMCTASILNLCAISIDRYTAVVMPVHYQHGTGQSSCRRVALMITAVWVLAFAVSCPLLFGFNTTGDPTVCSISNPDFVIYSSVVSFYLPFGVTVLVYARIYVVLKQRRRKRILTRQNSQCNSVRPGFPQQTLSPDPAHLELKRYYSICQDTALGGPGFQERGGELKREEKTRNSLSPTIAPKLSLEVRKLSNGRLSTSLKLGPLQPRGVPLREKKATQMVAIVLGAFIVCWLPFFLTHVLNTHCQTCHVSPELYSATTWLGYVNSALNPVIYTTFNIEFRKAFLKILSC

With `CN[C@@H]1Cc2cccc3[nH]c(=O)n(c23)C1` [Compound 1, (R)-5,6-dihydro-5-(methylamino)-4H-imidazo[4,5,1-ij]quinolin-2(1H)-one (Z)-2-butenedioate], at D3R [1], the Ki (usually the dissociation constant of the complex between target and ligand, obtained from inhibition or displacement) was 1940 nM. Also, in the assay with D3R [2], the “activity in D3R-mediated mitogenesis assay, previously reported” value is given as “no activity was observed”. Regarding `N[C@@H]1Cc2cccc3[nH]c(=O)n(c23)C1` [Compound 12a, (R)-5-Amino-5,6-dihydro-4H-imidazo[4,5,1-ij]quinolin-2(1H)-one], the “fold reduction of D2R affinity relative to 1” value at hD2R is around 6 fold. Besides, the “fold reduction of D3R affinity relative to 1” value on hD3R ([3H]7-OH-DPAT as tracer) is around 6 fold.

In the case of `CCCN(CCC)[C@@H]1Cc2cccc3nc(O)n(c23)C1` [Compound 14a, (R)-5-(Dipropylamino)-5,6-dihydro-4H-imidazo[4,5,1-ij]quinolin-2(1H)-one], on hD2R, the “fold decrease of D2R affinity relative to 13” value is recorded as around 4 fold. Turning to `CCCN(C)[C@@H]1Cc2cccc3[nH]c(=O)n(c23)C1` [Compound 14c, (R)-5-[Methyl(propyl)amino]-5,6-dihydro-4H-imidazo[4,5,1-ij]quinolin-2(1H)-one], the “D2R selectivity over D3R (D3R/D2R)” value at hD2R was around 8 fold.

Turning to `CCCN(CCC)[C@@H]1Cc2cccc3c2n(c(=O)n3CCC)C1` [Compound 15, (R)-5-(Dipropylamino)-1-propyl-5,6-dihydro-4H-imidazo[4,5,1-ij]quinolin-2(1H)-one], the Ki on hD2R and at hD3R was around 3 nM throughout.
